{"source": "patent US20110027251A1", "about": "“NOVEL USES FOR 4-PHENYLBUTYRATE (4PBA) AND ITS PHARMACEUTICALLY ACCEPTABLE SALTS” (priority 2008, published 2011)", "type_in_all_cases": "in vivo", "key": {"Aβ42": {"system": "Aβ42", "assay": "Aβ42 level in cerebral cortex, sandwich ELISA", "conditions": "Tg2576 mice, 200 mg/kg i.p. 5 weeks; compared with vehicle-treated transgenic mice (FIG. 2A)", "from_the_text": "(§1) We used Tg2576 transgenic mice with Alzheimer's Disease expressing the 695-aa human APP isoform which contains the double APPswe Swedish mutation [(APP695) Lys670→Asn, Met671→Leu] triggered by a […] hamster promoter. In the Tg2576 transgenic mice suffering from Alzheimer's disease used in the experimental murine model, the Aβ peptide content in the brain accumulates exponentially between their 7th and 12th months of life. […] Therefore 16 months old Tg2576 transgenic mice females were treated once a day intraperitoneally with 200 mg/kg 4PBA or its vehicle during 5 weeks. To do this a 4PBA solution was prepared titrating equimolecular amounts of 4-phenylbutyric acid (Sigma) and sodium hydroxide at a pH: 7.4. […]\n(§2) Mice were sacrificed 24 hours after performing the last test in the Morris water maze. […] Then the levels of Aβ40 and Aβ42 in the cerebral cortex were analyzed by a sandwich type ELISA test.\n(§3) The cerebral cortexes were homogenized in a buffer containing 5 M guanidine HCl and 50 mM Tris HCl at a pH=8, protease inhibitors (Roche's CompleteTM Protease Inhibitor Cocktail), and phosphatase inhibitors (0.1 mM Na3VO4, 1 mM NaF). […] Aliquots of the supernatant were freeze-dried at −80° C. and the protein concentration determined using the Bradford method with the Bio-Rad kit. Aβ42 levels were measured with an extra sensitive sandwich-type ELISA kit from Biosource (Camarillo, Calif., USA). […]"}, "[1]": {"system": "tau phosphorylated at Ser-202/Thr-205 (AT8)", "assay": "Western blot of phosphorylated tau (AT8) in hippocampus", "conditions": "Tg2576 mice, 200 mg/kg i.p. 5 weeks; compared with non-transgenic mice (FIG. 3A)", "from_the_text": "as §1, with “weeks.” for “weeks. To do this a 4PBA solution was prepared titrating equimolecular amounts of 4-phenylbutyric acid (Sigma) and sodium hydroxide at a pH: 7.4.”\n(§4) NaF) spun at 14,000×g, 4° C. for 20 min and the aliquots obtained from the supernatant were then freeze-dried at −80° C. […] Protein concentration was determined in both cases (using the Bradford test from Bio-Rad) and the aliquots stored at −80° C. until further use. […]\n(§5) To carry out the Western Blot analyses, protein samples were mixed in buffers having the same volumes (2×Laemmli) resolved in SDS-polyacrylamide gels and transferred to a nitrocellulose membrane. […] After two washings in PBS/Tween-20 or TBS/Tween20 and one washing in PBS or TBS, immunolabelled protein bands were detected using an anti-rabbit or anti-mouse HRP conjugate (Santa Cruz, 1:5000 dilution) followed by a chemiluminescence system (ECL Amersham Biosciences), and autoradiographic exposure to HyperfilmTMECL (Amersham Biosciences). […]"}, "Aβ40": {"system": "Aβ40", "assay": "Aβ40 level in cerebral cortex, sandwich ELISA", "conditions": "Tg2576 mice, 200 mg/kg i.p. 5 weeks; compared with vehicle-treated transgenic mice (FIG. 2A)", "from_the_text": "as §1, §2, §3"}, "[2]": {"system": "GluR1 subunit of the AMPA receptor", "assay": "Western blot of GluR1 in membrane enriched hippocampal protein extracts", "conditions": "Tg2576 mice, 200 mg/kg i.p. 5 weeks, vehicle 81.18±9.5%, non-transgenic 100.0±6.5% (FIG. 6)", "from_the_text": "as §1, with “weeks.” for “weeks. To do this a 4PBA solution was prepared titrating equimolecular amounts of 4-phenylbutyric acid (Sigma) and sodium hydroxide at a pH: 7.4.”\nas §4, §5"}, "GRP78": {"system": "GRP78", "assay": "Western blot of GRP78 in hippocampus", "conditions": "Tg2576 mice, 200 mg/kg i.p. 5 weeks; compared with non-transgenic mice (FIG. 4)", "from_the_text": "as §1, with “weeks.” for “weeks. To do this a 4PBA solution was prepared titrating equimolecular amounts of 4-phenylbutyric acid (Sigma) and sodium hydroxide at a pH: 7.4.”\nas §4, §5"}, "MAP-2": {"system": "MAP-2", "assay": "Quantitative western blot of MAP-2 in hippocampal extracts", "conditions": "Tg2576 mice, 200 mg/kg i.p. 5 weeks; untreated Tg2576 54.9±10.7, non-transgenic 100.0±14.9 (FIG. 6)", "from_the_text": "as §1, with “weeks.” for “weeks. To do this a 4PBA solution was prepared titrating equimolecular amounts of 4-phenylbutyric acid (Sigma) and sodium hydroxide at a pH: 7.4.”\nas §4, §5"}, "Tg2576 transgenic mice": {"system": "Tg2576 transgenic mice", "assay": "Morris water maze (spatial learning and memory)", "from_the_text": "We used Tg2576 transgenic mice with Alzheimer's Disease expressing the 695-aa human APP isoform which contains the double APPswe Swedish mutation [(APP695) Lys670→Asn, Met671→Leu] triggered by a […] hamster promoter. In the Tg2576 transgenic mice suffering from Alzheimer's disease used in the experimental murine model, the Aβ peptide content in the brain accumulates exponentially between their 7th and 12th months of life. […] Therefore 16 months old Tg2576 transgenic mice females were treated once a day intraperitoneally with 200 mg/kg 4PBA or its vehicle during 5 weeks. To do this a 4PBA solution was prepared titrating equimolecular amounts of 4-phenylbutyric acid (Sigma) and sodium hydroxide at a pH: 7.4. A group of normal mice, not genetically altered, from same similar strains and ages was used as control group. All the clinical test procedures were performed according to the European and the Spanish legislation (86/609/CEE; RD 1201/2005).\nThe Morris water maze was used to evaluate the operational and reference memory functions in Tg2576 transgenic mice treated with 4 PBA as described previously in the literature (Ribe et al., 2005). Groups of Tg2576 female mice treated with 4PBA (n=6), vehicle (n=7), and non-transgenic litter siblings (n=10) were subjected to spatial learning and memory tests using the Morris water maze when they became 16 months old. The maze consisted of a circular pool filled with water at 20° C. The mice received prior training in a pool with a visible platform during 3 consecutive days (8 tests per day) being able to swim towards a platform raised above the water level. The training with hidden platform took 9 consecutive days (4 tests per day) during which all mice were allowed 60 seconds to find the platform submerged 1cm below the water surface. […] All the trials were monitored with a VHS camera and the Watermaze software to analyze escape latencies and the percentage of time of occupation of each pool quadrant during prior tests (using the Ethovision software, Wageninge, Netherlands). […]"}, "PSD95": {"system": "PSD95", "assay": "Western blot of PSD95 in membrane enriched hippocampal protein extracts", "conditions": "Tg2576 mice, 200 mg/kg i.p. 5 weeks; membrane enriched hippocampal extracts (FIG. 6)", "from_the_text": "as §1, with “weeks.” for “weeks. To do this a 4PBA solution was prepared titrating equimolecular amounts of 4-phenylbutyric acid (Sigma) and sodium hydroxide at a pH: 7.4.”\nas §4, §5"}, "[3]": {"system": "GSK3b phosphorylated at Ser 9", "assay": "Western blot of inactive GSK3b phosphorylated at Ser 9 in hippocampus", "conditions": "Tg2576 mice, 200 mg/kg i.p. 5 weeks; compared with vehicle-treated transgenic mice (FIG. 3B)", "from_the_text": "as §1, with “weeks.” for “weeks. To do this a 4PBA solution was prepared titrating equimolecular amounts of 4-phenylbutyric acid (Sigma) and sodium hydroxide at a pH: 7.4.”\nas §4, §5"}, "histone 4 (H4)": {"system": "histone 4 (H4)", "assay": "Western blot of acetylated histone 4 in cortex", "conditions": "Tg2576 mice, 200 mg/kg i.p. 5 weeks; cortex extracts (FIG. 5)", "from_the_text": "as §1\nTo carry out the Western Blot analyses, protein samples were mixed in buffers having the same volumes (2×Laemmli) resolved in SDS-polyacrylamide gels and transferred to a nitrocellulose membrane. […] After two washings in PBS/Tween-20 or TBS/Tween20 and one washing in PBS or TBS, immunolabelled protein bands were detected using an anti-rabbit or anti-mouse HRP conjugate (Santa Cruz, 1:5000 dilution) followed by a chemiluminescence system (ECL Amersham Biosciences), and autoradiographic exposure to HyperfilmTMECL (Amersham Biosciences). The signals were quantified using the Scion Image program (Scion Corporation)."}}, "data": [{"smiles": "O=C([O-])CCCc1ccccc1.[Na+]", "note": "[4PBA, 4-phenylbutyric acid]", "values": [{"measurement": "Aβ42 levels in cerebral cortex", "setting": "Aβ42", "value": "no difference was observed"}, {"measurement": "phosphorylated tau at the AT8 site in hippocampus", "setting": "[1]", "value": "no differences were found"}, {"measurement": "Aβ40 levels in cerebral cortex", "setting": "Aβ40", "value": "no difference was observed"}, {"measurement": "expression levels of the GluR1 subunit of the AMPA receptor", "setting": "[2]", "value": "161.37±27.5", "unit": "%"}, {"measurement": "GRP78 levels in hippocampus", "setting": "GRP78", "value": "did not differ"}, {"measurement": "MAP-2 expression levels", "setting": "MAP-2", "value": "77.7±11.6"}, {"measurement": "proficiency in Morris water maze, invisible platform (escape latency)", "setting": "Tg2576 transgenic mice; 16 month old Tg2576 female mice, 200 mg/kg i.p. once a day for 5 weeks, compared with non-transgenic control mice of same age (FIG. 1B)", "value": "did not differ"}, {"measurement": "escape latencies, visible platform training", "setting": "Tg2576 transgenic mice; Tg2576 mice, 200 mg/kg i.p. 5 weeks, first training tests with visible platform (FIG. 1A)", "value": "did not differ significantly"}, {"measurement": "percentage of time spent in the target quadrant (memory retention)", "setting": "Tg2576 transgenic mice; Tg2576 mice, 200 mg/kg i.p. 5 weeks, platform removed, compared with control group of same age (FIG. 1C)", "value": "did not differ"}, {"measurement": "expression of PSD95 levels", "setting": "PSD95", "value": "induced significantly"}, {"measurement": "levels of inactive GSK3b phosphorylated at Ser 9 in hippocampus", "setting": "[3]", "value": "higher"}, {"measurement": "acetylation of cortical histone 4 (H4)", "setting": "histone 4 (H4)", "value": "induction of acetylation"}]}]}
